# Values quoted from earlier work, collected in patent US20240252348A1, “EVA SEGMENTED INTRAVAGINAL RINGS CONTAINING PROGESTERONE” (priority 2019, published 2024).
# Test system: women with a short cervix
# Details: singleton pregnant women with short cervical length (SCL)
smiles,measurement,value
"CCCCCC(=O)O[C@]1(C(C)=O)CC[C@H]2[C@@H]3CCC4=CC(=O)CC[C@]4(C)[C@H]3CC[C@@]21C [Makena, 17-alpha hydroxyprogesterone caproate]",prevention of preterm birth,ineffective
